In brackets after ≈: the same amount, converted by molar mass. Several values for one entry are separate records, joined by “and”; a condition that tells them apart may be missing. Identical values can stand only once. Ends that are not written are not given here. Peptide text beside a SMILES is read from it.
Experiments:
E. coli K88 = test: MIC, microtiter plate assay; type: cell-based, Escherichia coli; settings: 16∼20 h, triplicate
Protocol: (§1) The minimal inhibitory concentration (MIC) was evaluated by a microtiter plate assay ([Wiegand et al., 2008]). Serial 2-fold dilutions of test peptides were placed into a 96-well plate containing identical bacterial inoculum and incubated at 37°C for 16∼20 h. Vancomycin was used as antibiotic control. The MIC value was defined as the lowest peptide concentration where no visible growth occurred. All tests were made in triplicate.

S. suis CVCC 3928 = test: MIC, microtiter plate assay; type: cell-based, Streptococcus suis; settings: 16∼20 h, triplicate
Protocol: as §1

S. aureus CVCC 546 [1] = test: Time-kill assay; type: cell-based, Staphylococcus aureus; settings: 2 × MIC, MHB, 10^5 CFU/mL, 37°C, n = 3
From the text: Time-kill assay was used to assess the killing rates of S. aureus cells by AMPs in vitro, done by measuring the number of viable bacteria left at various times after exposure to the peptides. […] At different time intervals, a certain sample was taken, serially diluted, and plated on MHA for colonies counting. Cells treated with 2 × MIC DLP4 or vancomycin and left without treatment were used as the positive and blank controls, respectively ([Flamm et al., 2019]).

S. aureus ATCC 43300 = type: cell-based, Staphylococcus aureus; settings: microtiter, serial 2-fold dilutions, 37°C, 16∼20 h, triplicate; – = no activity
How it was run: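 Test peptides were serially diluted 2-fold in microtiter wells holding the same bacterial inoculum and incubated at 37°C for 16∼20 h. MIC was taken as the lowest peptide concentration with no visible growth; vancomycin served as control, and tests were run in triplicate.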

[2] = system: Staphylococcus aureus CVCC 546; test: microbe, parasite or virus in culture; type: cell-based
Protocol: as §1

[3] = system: Escherichia coli ATCC 25922; test: MIC, microtiter plate assay; type: cell-based; settings: 16∼20 h, triplicate
Protocol: as §1

[4] = system: Streptococcus pneumoniae CVCC 2350; test: MIC, microtiter plate assay; type: cell-based; settings: 16∼20 h, triplicate
Protocol: as §1

[5] = system: Salmonella pullorum CVCC 533; test: MIC, microtiter plate assay; type: cell-based; settings: 37°C, 16∼20 h, triplicate
Protocol: as §1

Gram-negative bacteria = test: MIC, summary over Gram-negative strains; type: cell-based; settings: E. coli and Salmonella strains of Table 2
Protocol: as §1

S. aureus CVCC 546 gDNA = test: Gel retardation assay of gDNA binding; parameters: species or system Staphylococcus aureus; settings: 10 min incubation, 1% agarose gel, ratios 0-5 (w/w)
Protocol: A gel retardation assay ([Zhao et al., 2019]) was utilized to analyze the binding of peptides to genomic DNA (gDNA) extracted from S. aureus CVCC 546 with TIANamp Bacteria DNA Kit (TIANGEN Biotech Co., Ltd., Beijing). The peptides were incubated for 10 min with gDNA at different ratios of 0–5.0 (w/w) and then loaded on 1% agarose gel for electrophoresis analysis.

[6] = system: mouse macrophage RAW 264.7; test: Cytotoxicity, MTT assay; type: cell-based; settings: 256 μg/mL, RAW 264.7, MTT, n = 4
Protocol: The cytotoxicity of peptides toward mouse macrophage RAW 264.7 was evaluated by the MTT assay as described previously ([Wang X. et al., 2018]).

S. enteritidis CVCC 3377 = test: MIC, microtiter plate assay; type: cell-based, Salmonella enteritidis; settings: 37°C, 16∼20 h, triplicate
Protocol: as §1

S. aureus CVCC 546 [7] = test: Mouse thigh infection model, CFU in thigh muscle; type: in vivo, mouse (female CD-1); settings: 10 mg/kg single i.p. dose 2 h post-infection, read 24 h post-infection, n = 6
Protocol: (§2) Mouse experiments were carried out at Gene Engineering Laboratory, Feed Research Institute of Chinese Academy of Agricultural Sciences (CAAS) and complied with institutional animal care and use policies and procedures (AEC-CAAS-20090609). All animal studies were performed with female CD-1 mice, 6∼7 weeks old.
(§3) S. aureus CVCC 546 in the exponential phase were resuspended in MHB and adjusted to 1 × 10^8 CFU/mL, a 0.1-mL inoculum was injected into the right thighs of mice. At 2 h post-infection, mice (n = 6) were administered intraperitoneally (i.p.) with peptides at 2.5, 5, or 10 mg/kg. Mice raised without any treatment, or treated with PBS, 10 mg/kg DLP4, or vancomycin were used as the blank and negative and positive controls, respectively. At 24 h post-infection, peripheral blood was collected and serum was separated for cytokine levels analysis by using enzyme-linked immunosorbent assay (ELISA) kit (R&D systems, United States). Mice were euthanized, the right thighs were aseptically removed and processed for colonies counting ([Ling et al., 2015]).

IL-6 = test: Mouse thigh infection model, serum cytokine ELISA; type: in vivo, mouse (female CD-1); settings: 10 mg/kg i.p., serum 24 h post-infection
Protocol: as §2, §3

TNF-α = test: Mouse thigh infection model, serum cytokine ELISA; type: in vivo, mouse (female CD-1); settings: 10 mg/kg i.p., serum 24 h post-infection
Protocol: as §2, §3

IL-10 = test: Mouse thigh infection model, serum cytokine ELISA; type: in vivo, mouse (female CD-1); settings: 10 mg/kg i.p., serum 24 h post-infection
Protocol: as §2, §3

S. aureus CVCC 546 [8] = test: Membrane permeabilization, PI flow cytometry; type: cell-based, Staphylococcus aureus; settings: 2 × MIC, 0.5 h, 10^8 CFU/mL, n = 3
Protocol: The effects of peptides on membrane permeabilization were measured by flow cytometry ([Zhu et al., 2018]). […] Cells untreated and treated with 2 × MIC DLP4 or vancomycin were used as blank and positive controls. The fluorescence of the dye was monitored at an excitation wavelength of 488 nm and an emission wavelength of 635 nm.

S. aureus CVCC 546 [9] = test: Post-antibiotic effect (PAE); type: cell-based, Staphylococcus aureus; settings: 2 × MIC, 2 h exposure, mean ± SD, n = 3
Protocol: The PAE was determined by exposing S. aureus cells to antimicrobial agent at 1×, 2×, or 4 × MIC for 2 h. After drug removal by dilution, the bacterial culture was incubated at 37°C and 250 rpm. An aliquot of samples (50 μL) were taken for CFU counts at different time intervals until bacterial cultures became turbid. Bacteria treated with DLP4 or vancomycin and left without treatment were used as the positive and blank controls, respectively. The PAE was calculated using the following formula: PAE = T − C, where T is the time for the CFU counts to increase by 10-fold above the count observed immediately after drug removal, and C is the corresponding time for the untreated control ([Oh et al., 2019]).

[10] = system: S. epidermidis ATCC 12228; test: MIC, microtiter plate assay; type: cell-based, Staphylococcus epidermidis; settings: 16∼20 h, triplicate
Protocol: as §1

mouse erythrocytes = test: Hemolytic activity; type: cell-based; settings: 128 μg/mL, 8% (v/v) mouse erythrocytes in PBS, 1 h, 37°C, absorbance 576 nm, n = 3
Protocol: Hemolytic activity of peptides was evaluated with fresh mouse erythrocytes. Briefly, fresh mouse erythrocytes were collected, washed, and resuspended to a concentration of 8% (v/v) in PBS. Then, an aliquot of erythrocyte solution was added to 96-well plates containing an equal volume of peptide solution (1∼256 μg/mL) and was incubated for 1 h at 37°C. The erythrocyte suspension treated with 0.1% Triton X-100 and left untreated was employed as positive and negative controls, respectively. After centrifugation at 2000 rpm for 5 min, the supernatant was measured using a microplate reader at 576 nm. The percent hemolysis was calculated using the following formula: Percenthemolysis = [(A − A0)/(A100 − A0)] × 100%, where A, A100, and A0 represent the absorbance of the peptide sample and positive and negative controls, respectively.

S. aureus CVCC 546 [11] = test: Potassium ion (K+) leakage; type: cell-based, Staphylococcus aureus; settings: 1 × MIC, treated for 150 min, 0.9% saline, 10^8 CFU/mL, ICP, n = 3
Protocol: To further investigate the effects of peptides on membrane integrity, K^+ leakage determination was carried out as previously described ([Miao et al., 2016]). Briefly, S. aureus CVCC 546 cells were centrifuged, washed, and resuspended in 0.9% sterile saline. The cell suspension (10^8 CFU/mL) was treated with peptides at 1 × MIC. Cells untreated and treated with DLP4 or nisin were used as blank and positive controls. At time intervals of 30, 60, 90, 120, and 150 min, the suspensions were centrifuged at 12000 rpm for 5 min. The supernatants were then subjected to measurement by Agilent inductively coupled plasma optical emission (ICP-OES).

[12] = Drop-diffusion assay of antibacterial activity; type: cell-based

In the case of `CC[C@H](C)[C@@H]1NC(=O)[C@@H]2CSSC[C@@H](C(=O)N[C@@H](CCCNC(=N)N)C(=O)N[C@@H](CCCCN)C(=O)O)NC(=O)[C@H](CC(N)=O)NC(=O)[C@@H]3CSSC[C@H](NC(=O)[C@H](C)NC(=O)[C@H](C)NC(=O)[C@H](Cc4c[nH]cn4)NC(=O)CNC(=O)[C@H](C(C)C)NC(=O)[C@H](CCCCN)NC(=O)[C@H](Cc4ccccc4)NC(=O)[C@@H]4CCCN4C(=O)[C@H](CO)NC(=O)[C@H](CC(C)C)NC(=O)[C@H](CC(C)C)NC(=O)[C@H](CC(=O)O)NC(=O)[C@@H](NC(=O)[C@@H](NC(=O)[C@H](C)N)[C@@H](C)O)CSSC[C@H](NC(=O)[C@H](Cc4c[nH]c5ccccc45)NC(=O)CNC(=O)CNC(=O)[C@H](CCCNC(=N)N)NC(=O)[C@H](CCCCN)NC(=O)CNC(=O)[C@H](CCCNC(=N)N)NC(=O)[C@H](C)NC1=O)C(=O)N[C@@H](CC(=O)O)C(=O)N[C@@H](CCCCN)C(=O)N[C@@H](CCCNC(=N)N)C(=O)N[C@@H](C)C(=O)N[C@@H](C(C)C)C(=O)N3)C(=O)N[C@@H](C)C(=O)N[C@@H](C)C(=O)N[C@@H](Cc1c[nH]cn1)C(=O)N2` [DLP4] (HELM PEPTIDE1{A.T.C.D.L.L.S.P.F.K.V.G.H.A.A.C.A.A.H.C.I.A.R.G.K.R.G.G.W.C.D.K.R.A.V.C.N.C.R.K}$PEPTIDE1,PEPTIDE1,3:R3-30:R3|PEPTIDE1,PEPTIDE1,16:R3-36:R3|PEPTIDE1,PEPTIDE1,20:R3-38:R3$$$V2.0; N-terminus and C-terminus assumed), the MIC (E. coli K88; 37°C) is reported as over 29.98 µM, the MIC (S. suis CVCC 3928; 37°C) is reported as 3.75 µM (≈ 16 µg/mL) and the “decrease of CFU counts within 1 h” value (S. aureus CVCC 546 [1]) is reported as 2.7 log10 CFU/mL. For the same compound, the “A1 (MIC against S. aureus ATCC 43300)” value (S. aureus ATCC 43300) was 16 µg/mL, the MIC ([2]; Table 1, – = no activity) was 16 and the MIC ([2]; microtiter, 37°C, 16∼20 h, triplicate) was 3.75 µM (≈ 16 µg/mL). The MIC ([3]; 37°C) was over 29.98 µM, the MIC ([4]; 37°C) was 7.50 µM (≈ 32 µg/mL) and the MIC [5] was over 29.98 µM. For the same compound, the “activity against Gram-negative bacteria” value (Gram-negative bacteria) was “no activity”, the “peptide/gDNA mass ratio at which gDNA was completely blocked” value (S. aureus CVCC 546 gDNA) was 2.5 and the “peptide/gDNA mass ratio at which migration of gDNA began to be retarded” value (S. aureus CVCC 546 gDNA) was 0.5. The cell viability [6] was 63.8%, the MIC (S. enteritidis CVCC 3377) was over 29.98 µM and the “reduction of S. aureus in infected thigh muscles” value (S. aureus CVCC 546 [7]) was 1.7 log10 (CFU/g). The “downregulation of serum level of IL-6” value (IL-6) was 710.02 pg/mL, the “downregulation of serum level of TNF-α” value (TNF-α) was 1103.30 pg/mL and the “downregulation of serum level of IL-10” value (IL-10) was 29.06 pg/mL. For the same compound, the “percentage of PI-positive cells” value (S. aureus CVCC 546 [8]) was 41.8%, the PAE (S. aureus CVCC 546 [9]) was 8.20 ± 0.19 h and the MIC ([10]; 37°C) was 14.99 µM (≈ 64 µg/mL). For the same compound, the hemolysis (mouse erythrocytes) was 0.61% and the “level of released K+” value (S. aureus CVCC 546 [11]) was 0.72 mg/L.

In the case of `CN[C@H](CC(C)C)C(=O)N[C@H]1C(=O)N[C@@H](CC(N)=O)C(=O)N[C@H]2C(=O)N[C@H]3C(=O)N[C@H](C(=O)N[C@H](C(=O)O)c4cc(O)cc(O)c4-c4cc3ccc4O)[C@H](O)c3ccc(c(Cl)c3)Oc3cc2cc(c3O[C@@H]2O[C@H](CO)[C@@H](O)[C@H](O)[C@H]2O[C@H]2C[C@](C)(N)[C@H](O)[C@H](C)O2)Oc2ccc(cc2Cl)[C@H]1O` [Vancomycin], the MIC (E. coli K88; Escherichia coli, K88, 37°C) is reported as 43.1 µM and 64 µg/mL, the MIC (S. suis CVCC 3928; Streptococcus suis, CVCC3928, 37°C) is reported as 0.17 µM and 0.25 µg/mL and the “decrease of CFU counts within 1 h” value (S. aureus CVCC 546 [1]) is reported as 0.22 log10 CFU/mL. The MIC ([2]; Staphylococcus aureus, CVCC546, 20 h) was 0.67 µM and 1 µg/mL, the MIC ([3]; Escherichia coli, ATCC25922, 37°C) was 86.2 µM and 128 µg/mL and the MIC ([4]; Streptococcus pneumoniae, CVCC2350, 37°C) was 0.34 µM and 0.5 µg/mL. The MIC ([5]; Salmonella enterica, PULLORUM) was 86.2 µM and 128 µg/mL, the cell viability [6] was 85.8% and the MIC (S. enteritidis CVCC 3377; Salmonella enterica, ENTERITIDIS) was 86.2 µM and 128 µg/mL. The “reduction of S. aureus in infected thigh muscles” value (S. aureus CVCC 546 [7]) was 0.77 log10 (CFU/g), the “downregulation of serum level of IL-6” value (IL-6) was 497.48 pg/mL and the “downregulation of serum level of TNF-α” value (TNF-α) was 1052.98 pg/mL. For the same compound, the “downregulation of serum level of IL-10” value (IL-10) was 15.82 pg/mL, the “percentage of PI-positive cells” value (S. aureus CVCC 546 [8]) was 5.1% and the PAE (S. aureus CVCC 546 [9]) was 1.36 ± 0.20 h. For the same compound, the MIC ([10]; Staphylococcus epidermidis, ATCC12228, 37°C) was 0.67 µM and 1 µg/mL and the hemolysis (mouse erythrocytes) was 0.54%.

For “ATCDLLSPFKVGHAACAAHCIARGKRSGWCDKRAVCNCRK (also: bicyclic or more (positions not given here)) [ID7, DLP4 derivative changed at a conservative site]”, the antibacterial activity [12] was “no antibacterial activity”.
